Test results as given in patent US20070088090A1, “Alpha-bulnesene, its preparation and its use” (Yangsen Biotechnology Co., Ltd., priority 2005, published 2007).
One block for each molecule: values may come before it.

How the values were obtained:
PGE2 formation = assay: Prostaglandin E2 formation induced by AA in rabbit washed platelets (EIA); type: cell-based; conditions: AA 100 μM
Protocol: (§1) After challenging platelets with AA (100 μM) for 6 min, 1 mM EDTA and 20 μM indomethacin were added to terminate the reaction. By centrifugation for 5 min at 4° C. and 10,000×g, the TXB2 and PGE2 in the supernatants were assayed using EIA kits according to the procedure described by the manufacturer.

TXB2 formation = assay: Thromboxane B2 formation induced by AA in rabbit washed platelets (EIA); type: cell-based; conditions: AA 100 μM, 6 min
Protocol: as §1

rabbit platelets = assay: Cytotoxicity assay in rabbit platelets; type: cell-based; conditions: 12.5-50 μM, 30 min treatment, data not shown
[1] = tested on: PAF-induced platelet aggregation; assay: PAF-induced platelet aggregation in rabbit washed platelets; type: cell-based; conditions: PAF 5 nM, read-out: IC50, inhibition of platelet aggregation induced by PAF
Protocol: Blood samples were collected from the marginal ear artery of New Zealand white rabbits. The blood was then treated to obtained platelet-rich plasma (PRP) mixed with EDTA. The platelet pellet was obtained from the EDTA-anticoagulated PRP by centrifugation. The pellet was then suspended in Tyrode solution and incubated. Platelet numbers were then counted.
The platelet suspension was stirred with solvent of test compound in solvent of different concentrations. Aggregation inducer PAF was then added to trigger the aggregation. Aggregation was determined by the transmission method using a platelet aggregation chromogenic kinetic system. The initial transmittance of the Ca^2+-containing Tyrode solution was taken as 0% aggregation and that of the platelet suspension as 100% aggregation. […] Percent inhibition by a compound was calculated.
Platelet suspension was prepared as follows. […]
Platelet aggregation was measured turbidimetrically with a light-transmission Platelet Aggregation Chromogenic Kinetic System PACK4 (Helena Laboratories, Beaumont, Tex., USA) with some modifications. […] The absorbance of the Tyrode's solution was taken as 0% aggregation and that of the platelet suspension as 100% aggregation. The extent of platelet aggregation was measured as the maximal increase of light transmission within 4 min after addition of the inducers. […]

[2] = tested on: AA-induced platelet aggregation; assay: AA-induced platelet aggregation in rabbit washed platelets; type: cell-based; conditions: AA 100 μM
Protocol: Platelet suspension was prepared as follows. Blood was collected from the marginal ear vein of New Zealand White rabbits. The blood was then anticoagulated with acid citrate dextrose (ACD, 1:6, v/v) and centrifuged for 8 min at 1000×g at room temperature. The upper portion was collected as platelet-rich plasma (PRP) and mixed with EDTA to a final concentration of 5 mM. The platelet pellets were obtained from EDTA-mixed PRP by centrifugation for 12 min at 2000×g. The platelet pellets were suspended with Ca^2+-free Tyrode's solution, and then incubated with apyrase (1 unit mL^−1) for 15 min at 37° C. […] The concentration of platelets was adjusted to 2.5×10^8 platelets mL^−1.
Platelet aggregation was measured turbidimetrically with a light-transmission Platelet Aggregation Chromogenic Kinetic System PACK4 (Helena Laboratories, Beaumont, Tex., USA) with some modifications. […] Aggregation was induced with PAF (5 nM) and AA (100 μM). The absorbance of the Tyrode's solution was taken as 0% aggregation and that of the platelet suspension as 100% aggregation. The extent of platelet aggregation was measured as the maximal increase of light transmission within 4 min after addition of the inducers. When isopropanol was used as the solvent the final concentration was fixed at 0.5% (v/v) to eliminate the effect of the solvent. All glassware was siliconized.

[3] = tested on: PAF-induced intracellular Ca2+ release; assay: PAF-induced intracellular Ca2+ release in fluo-3-loaded platelets; type: cell-based, rabbit; conditions: PAF 5 nM, 2.5-50 μM, read-out: IC50, inhibition of PAF-induced intracellular Ca2+ release
Protocol: Platelets pelleted from PRP were resuspended in Ca^2+-free Tyrode's solution, and then incubated with fluo-3/AM (2 μM) at 37° C. for 30 min. In order to prevent leakage of dye, probenecid (2.5 mM) was added to the buffers throughout the experiments. After washing, the fluo-3-loaded platelets were finally suspended in Ca^2+-free Tyrode's solution without heparin at a concentration of 1.3×10^8 platelets mL^−1. The fluo-3-loaded platelets were preincubated with α-bulnesene in the presence of extracellular calcium (1 mM) at 37° C. for 2 min prior to addition of PAF. Fluorescence (Ex 505 nm, Em 530 nm) was measured with a fluorescence spectrophotometer (Model F4500; Hitachi, Tokyo, Japan). At the end of the experiment, the cells were treated with digitonin (20%) followed by the addition of EGTA (50 mM) to obtain the maximal and minimal fluorescence, respectively. [Ca^2+]i was calculated as described for fluo-3/AM using the Ca^2+-dye dissociation constant 864 nM.

PAF receptor = molecular target: T1, PAF receptor (Oryctolagus cuniculus, UniProt G1TEI7); assay: [3H]PAF receptor binding assay using rabbit washed platelets
T1 construct: from tissue; host or cells: rabbit washed platelets (intact)
Protocol: [^3H]PAF receptor binding assay is prepared using rabbit washed platelets. […] The reaction mixture was incubated at 4° C. for 2 hrs and then 5 mL of BSA-containing saline solution was added to terminate the reactions. The free and bound ligands were separated by filtration using a Whtman GF/C glass fiber filters which were presoaked with ice-cold water. The filters were rapidly washed with the same solution and then dried and placed into vials containing 10 mL of the scintillation fluid. Radioactivity was measured in a liquid scintillation counter (Beckman LS3801). The difference between the total radioactivity of bound [^3H]PAF in the absence and in the presence of excess unlabeled PAF is defined as specific binding of the radio-labeled ligand. In a batch of experiments, [^3H]PAF was incubated with different concentrations of PAF receptor antagonists, and the effect of the antagonist on the specific binding was expressed as percentage inhibition of the control.
Percent inhibition (%)=[100−(B/A×100)](%)
wherein A represents percent aggregation in control added and B represents percent aggregation in compound added.

T1 sequence (G1TEI7 1-342): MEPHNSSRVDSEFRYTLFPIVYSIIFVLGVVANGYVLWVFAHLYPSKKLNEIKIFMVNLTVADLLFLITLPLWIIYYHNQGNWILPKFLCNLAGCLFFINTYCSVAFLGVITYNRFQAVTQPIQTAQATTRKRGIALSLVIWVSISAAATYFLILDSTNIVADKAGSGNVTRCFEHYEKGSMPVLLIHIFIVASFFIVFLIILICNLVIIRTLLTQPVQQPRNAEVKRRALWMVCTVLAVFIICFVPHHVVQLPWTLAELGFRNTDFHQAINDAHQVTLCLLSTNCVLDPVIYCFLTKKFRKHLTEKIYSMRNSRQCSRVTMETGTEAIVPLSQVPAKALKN

Structure (SMILES): O=C(O)c1cc2cc(Cc3cccnc3)ccc2o1 [furegrelate]
PGE2 formation in the presence of AA (PGE2 formation; 300 μM): reversely enhanced
inhibition at 300 µM (TXB2 formation; Oryctolagus cuniculus, Platelet, 0.1 h, 300 μM, read-out: percent inhibition of TXB2 formation): 96.49 ± 0.78%

Structure (SMILES): COc1ccc2c(c1)c(CC(=O)O)c(C)n2C(=O)c1ccc(Cl)cc1 [Indomethacin, indomethacin]
PGE2 formation in the presence of AA (PGE2 formation; indomethacin, concentration not restated (1 μM as positive control)): inhibited
inhibition at 1 µM (TXB2 formation; Oryctolagus cuniculus, Platelet, 0.1 h, 1 μM, read-out: percent inhibition of TXB2 formation): 98.05 ± 0.16%

Structure (SMILES): C=C(C)C1CCC(C)=C2CCC(C)C2C1 (stereo not drawn) [α-bulnesene, 1β,4-dimethyl-7β-isopropenyl-1,2,3,5,6,7,8,8aα-octahydroazulene]
PGE2 formation in the presence of AA (PGE2 formation; 25-100 μM, 6 min): inhibited
toxicity in rabbit platelets (rabbit platelets): did not have any toxicity
IC50 [1]: 24.5 ± 2.45 µM
TXB2 formation stimulated by AA (TXB2 formation; 25-100 μM): inhibited
IC50 ([2]; read-out: IC50, inhibition of platelet aggregation induced by AA): 42.5 ± 5.97 µM
IC50 [3]: 19.6 ± 1.32 µM
IC50 (PAF receptor; 0.2 nM [3H]PAF, 4° C., 2 hrs): 17.6 ± 5.68 µM

IC50 [1]: 2.4 ± 1.01 µM
percent inhibition for [3H]PAF binding (PAF receptor; 10 μM, n=3): 10.10±1.74%
Structure (SMILES): CCCCCCCCCCCCCCCCCCNC(=O)OCC(COP(=O)([O-])OCC[n+]1ccsc1)OC (centres unmarked) [CV-3988]
inhibition on AA-induced platelet aggregation [2]: no inhibition
